Ends that are not written are not given here.
Columns and labels:
[1] = system: urothelial tumor cell line T24; assay: Phage attachment to subconfluent cell monolayer; assay type: cell-based, human; conditions: 1x10^8 T.U. per well
Text: FIG. 7. Binding of selected phage clones to the human breast cancer cell line MDA-MBA435 (white bars) as well as the urothelial tumor cell lines T24 (light grey bars) and RT4 (dark grey bars). Insertless fd-tet phage were included as controls. Results are given as mean of triplicate wells relative to binding of fd-tet phage, that was set as 1. Input of phage was 1×10^8 T.U. per well. Bound phage were detected after intensive washing by infection with log phase K91 bacteria and plating of serial dilutions.
Binding of selected phage was examined with human adherent primary urothelial cells, the breast cancer cell line MDA-MB-435 and the transitional carcinoma cell lines RT4 and T24. All cells were grown to subconfluency in 48 well plates and free binding sites were blocked with 800 μl 30% FCS/DMEM (blocking medium) for 1 hour at 37° C. The blocking solution was then replaced by 200 μl 10% FCS/DMEM (washing medium) containing 1×10^8 cfu of each phage per well. After incubation for 2 hours at 4° C. to prevent unspecific endocytosis, unbound phage were removed by washing 7 times with 500 μl washing medium. For competition experiments increasing concentrations of the corresponding peptide or a control peptide (CARAC, SEQ ID NO:5) were added during the incubation. Bound phage were determined by infection with 500 μl log phase K91 culture and plating of serial dilutions. […]

[2] = system: human bone marrow cells; assay: Binding of single phage clones to bone marrow cells by BRASIL; assay type: cell-based; conditions: single phage clone; negative control fd-tet phage, positive control RGD-4C phage
Text: Fresh human ribs removed during surgery for access to underlying tumors were sectioned to expose the bone marrow surface. No significant damage to the bone marrow was inflicted to the tissue and the morphology was well preserved during after the procedure. The bone samples were washed (gently) 5 times with ice cold DMEM/0.15% BSA (sterile filtered). The marrow was removed by gently scraping cells from the bone. Cells were washed twice by centrifugation and resuspension in DMEM/BSA to remove debris and fat. Cells were resuspended in DMEM/BSA (about 10^7 cells per ml) and incubated with a phage display library (10^9 TU) prepared as described above. After incubation for 3 hours on ice, the cells were centrifuged through an organic phase consisting of a 9:1 mixture of dibutylphthalate:cyclohexane. Centrifugation occurred for 10 min at 10,000×g. The bottom of the centrifuge tube was snap frozen at −80° C. and phage were recovered by bacterial infection as described above. The selection was repeated for 3 more rounds of BRASIL and 90 clones were sequenced.
A system has been designed to analyze the data resulting from peptide library screenings, adapted from the SAS package. The system is available upon request from the M. D. Anderson Cancer Center. […] The positive control was phage containing an RGD-4C insert, which is known to bind to bone marrow. […]

[3] = system: human ureter mucosa; assay: Dot blot chamber assay after removal of the GAG-layer; assay type: cell-based; conditions: human ureter sample
Method: (§1) Removal of the glucosaminoglycan- (GAG-) layer on intact mucosa samples was performed as a dot blot chamber assay. Half of the wells were incubated with 200 μl 0.1M HCl per well for 2 min, intensely rinsed with blocking solution and both parts blocked as before. Results are given relative to fd-tet phage to untreated mucosa, that was set to 1.
(§2) Using the same assay the influence of the glucosaminoglycan (GAG) layer on binding of several phage to intact mucosa was examined. The GAG-layer was removed as described above. Half of the mucosa of human ureter and porcine bladder specimens were treated inside the dot blot chamber with […] for 2 min, extensively washed and the binding assay performed as before.

[4] = system: porcine bladder mucosa; assay: as above; assay type: cell-based; conditions: 0.1M HCl for 2 min; relative to untreated mucosa set to 1
Method: FIG. 10. Influence of the GAG-layer on phage binding. In the dot blot chamber assay portions of a porcine bladder mucosa were treated with 0.1M HCl for 2 min prior to remove the GAG-layer. Binding to treated surface is given relative to untreated surface, that was set as 1. Bound phage were detected after intensive washing by infection with log phase K91 bacteria and plating of serial dilutions.
as §1, §2

[5] = system: leptin; conditions: cited from earlier work
[6] = molecular target: T1, recombinant rat NRP-2/Fc (rat; human, UniProt O35276 23-858, limits assumed); assay: phage binding to immobilized receptor, recovery by bacterial infection
T1 construct: Bought receptor/Fc chimera; also called neutropilin-2 (NRP-2) receptor; not shown: Fc region of human IgG1
T1 sequence (looked up): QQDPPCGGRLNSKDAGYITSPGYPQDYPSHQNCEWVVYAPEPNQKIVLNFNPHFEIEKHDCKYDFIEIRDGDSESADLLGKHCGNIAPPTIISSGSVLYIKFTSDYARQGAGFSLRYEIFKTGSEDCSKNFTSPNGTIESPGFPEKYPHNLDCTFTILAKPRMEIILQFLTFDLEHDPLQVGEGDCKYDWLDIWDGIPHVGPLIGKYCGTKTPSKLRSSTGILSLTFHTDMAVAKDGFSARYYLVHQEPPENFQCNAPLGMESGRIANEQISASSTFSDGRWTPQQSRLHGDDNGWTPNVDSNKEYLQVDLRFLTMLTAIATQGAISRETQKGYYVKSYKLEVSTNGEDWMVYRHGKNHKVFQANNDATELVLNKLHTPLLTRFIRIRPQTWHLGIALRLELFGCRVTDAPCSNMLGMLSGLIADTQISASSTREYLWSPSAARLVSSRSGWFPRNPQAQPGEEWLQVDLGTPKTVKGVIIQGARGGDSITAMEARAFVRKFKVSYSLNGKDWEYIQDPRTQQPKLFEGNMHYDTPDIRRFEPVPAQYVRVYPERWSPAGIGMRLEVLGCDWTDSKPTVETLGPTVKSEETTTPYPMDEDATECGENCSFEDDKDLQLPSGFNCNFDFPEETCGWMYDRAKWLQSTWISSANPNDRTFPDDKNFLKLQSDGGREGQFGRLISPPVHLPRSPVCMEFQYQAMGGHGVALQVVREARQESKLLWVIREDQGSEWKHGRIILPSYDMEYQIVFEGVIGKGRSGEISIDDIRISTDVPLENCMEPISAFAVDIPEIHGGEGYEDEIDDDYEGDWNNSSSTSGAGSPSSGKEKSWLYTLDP
Method: (§3) Human VEGFR-1, human VEGFR-2, rat NRP-1, and rat NRP-2 (1 μg in 50 μl of PBS) were immobilized on microtiter well plates overnight at 4° C. The wells were washed twice with PBS, blocked with PBS containing 3% BSA for 2 h at room temperature, and then incubated with 10⁹ TU of either […] […] (SEQ ID NO:11) phage, or fd-tet phage in 50 μl of PBS/1.5% BSA. After 1 hr at room temperature, wells were washed nine times with PBS and phage were recovered by bacterial infection. Serial dilutions were plated onto Luria-Bertani (LB) medium supplemented with tetracycline. VEGF₁₆₅, PDGF-BB, or synthetic peptides were used at the indicated concentrations and pre-incubated with the immobilized proteins to evaluate competitive inhibition of phage binding.

[7] = molecular target: T2, recombinant human VEGFR-2/Fc (human, UniProt P35968 20-764); assay: as above
T2 construct: Bought receptor/Fc chimera; not shown: Fc region of human IgG1
T2 sequence (P35968 20-764 limits assumed): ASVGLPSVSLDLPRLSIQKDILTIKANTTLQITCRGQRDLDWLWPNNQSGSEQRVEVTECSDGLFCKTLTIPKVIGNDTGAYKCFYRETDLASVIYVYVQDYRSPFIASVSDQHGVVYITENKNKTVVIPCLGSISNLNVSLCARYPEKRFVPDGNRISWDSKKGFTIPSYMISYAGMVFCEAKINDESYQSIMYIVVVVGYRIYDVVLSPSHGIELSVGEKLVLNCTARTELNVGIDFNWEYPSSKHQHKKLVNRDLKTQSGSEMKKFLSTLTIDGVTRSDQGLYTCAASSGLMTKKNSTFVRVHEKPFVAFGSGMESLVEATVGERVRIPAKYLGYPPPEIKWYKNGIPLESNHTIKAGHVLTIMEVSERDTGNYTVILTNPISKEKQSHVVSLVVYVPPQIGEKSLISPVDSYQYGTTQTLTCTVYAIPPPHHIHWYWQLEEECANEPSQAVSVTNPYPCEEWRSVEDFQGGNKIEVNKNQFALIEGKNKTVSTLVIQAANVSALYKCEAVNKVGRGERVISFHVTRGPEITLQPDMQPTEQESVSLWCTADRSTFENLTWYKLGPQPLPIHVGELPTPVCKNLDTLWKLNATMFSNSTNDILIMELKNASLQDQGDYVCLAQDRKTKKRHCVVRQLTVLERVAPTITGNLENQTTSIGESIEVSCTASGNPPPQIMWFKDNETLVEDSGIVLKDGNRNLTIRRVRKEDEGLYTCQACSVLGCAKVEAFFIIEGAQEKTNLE
Method: as §3

[8] = molecular target: T3, recombinant rat NRP-1/Fc (rat; human, UniProt Q9QWJ9 22-854, limits assumed); assay: as above
T3 construct: Bought receptor/Fc chimera; also called rat Neuropilin-1; neuropilin-1; not shown: Fc region of human IgG1
T3 sequence (looked up): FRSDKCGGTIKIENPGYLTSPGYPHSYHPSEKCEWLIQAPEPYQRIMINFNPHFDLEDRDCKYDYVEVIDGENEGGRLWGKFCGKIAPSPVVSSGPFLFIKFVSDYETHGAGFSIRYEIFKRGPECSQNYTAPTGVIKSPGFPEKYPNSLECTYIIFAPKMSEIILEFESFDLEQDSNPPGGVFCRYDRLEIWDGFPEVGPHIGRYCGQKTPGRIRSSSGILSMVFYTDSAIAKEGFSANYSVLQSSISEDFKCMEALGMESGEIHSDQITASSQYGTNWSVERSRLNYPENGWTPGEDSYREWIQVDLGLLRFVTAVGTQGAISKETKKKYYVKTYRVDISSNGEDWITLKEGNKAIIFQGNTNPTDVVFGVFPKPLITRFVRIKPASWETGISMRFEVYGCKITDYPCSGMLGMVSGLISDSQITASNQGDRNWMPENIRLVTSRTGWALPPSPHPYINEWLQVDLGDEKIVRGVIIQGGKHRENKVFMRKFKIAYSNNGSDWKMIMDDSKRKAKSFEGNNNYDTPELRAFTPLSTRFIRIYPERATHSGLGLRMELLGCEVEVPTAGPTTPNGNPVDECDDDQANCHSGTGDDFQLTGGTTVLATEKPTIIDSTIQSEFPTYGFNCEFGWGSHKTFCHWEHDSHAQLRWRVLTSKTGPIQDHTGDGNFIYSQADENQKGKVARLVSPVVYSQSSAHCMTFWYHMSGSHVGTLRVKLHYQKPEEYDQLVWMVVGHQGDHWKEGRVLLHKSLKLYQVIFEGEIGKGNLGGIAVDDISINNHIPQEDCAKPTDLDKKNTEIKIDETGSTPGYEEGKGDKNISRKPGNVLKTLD
Method: as §3

[9] = molecular target: BSA (bovine serum albumin) (bovine, UniProt P02769 25-607); assay: phage binding to immobilized protein, recovery by bacterial infection
Chain of BSA (bovine serum albumin) (P02769 25-607 limits assumed): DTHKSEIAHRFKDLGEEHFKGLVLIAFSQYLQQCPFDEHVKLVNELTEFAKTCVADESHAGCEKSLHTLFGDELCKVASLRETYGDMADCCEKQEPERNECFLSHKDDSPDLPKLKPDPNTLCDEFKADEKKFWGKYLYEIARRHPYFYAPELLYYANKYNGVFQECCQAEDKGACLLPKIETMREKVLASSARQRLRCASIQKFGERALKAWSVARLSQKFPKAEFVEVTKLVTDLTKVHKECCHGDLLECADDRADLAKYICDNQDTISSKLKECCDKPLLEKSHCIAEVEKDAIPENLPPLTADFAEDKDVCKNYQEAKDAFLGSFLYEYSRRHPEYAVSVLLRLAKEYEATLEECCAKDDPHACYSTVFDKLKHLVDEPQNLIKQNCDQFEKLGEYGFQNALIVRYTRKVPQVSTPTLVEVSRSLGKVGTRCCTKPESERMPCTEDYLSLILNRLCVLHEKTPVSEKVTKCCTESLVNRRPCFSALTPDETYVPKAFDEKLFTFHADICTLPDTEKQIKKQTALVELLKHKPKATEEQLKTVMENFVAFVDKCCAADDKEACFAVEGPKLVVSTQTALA

[10] = molecular target: T4, recombinant human VEGFR-1 (human, UniProt P17948 27-758, limits assumed); assay: phage binding to immobilized receptor, against insertless fd-tet phage (not shown)
T4 construct: Bought; immobilized on microtiter wells (1 ug in 50 ul PBS); also called Flt1
T4 sequence (P17948 27-758 limits assumed): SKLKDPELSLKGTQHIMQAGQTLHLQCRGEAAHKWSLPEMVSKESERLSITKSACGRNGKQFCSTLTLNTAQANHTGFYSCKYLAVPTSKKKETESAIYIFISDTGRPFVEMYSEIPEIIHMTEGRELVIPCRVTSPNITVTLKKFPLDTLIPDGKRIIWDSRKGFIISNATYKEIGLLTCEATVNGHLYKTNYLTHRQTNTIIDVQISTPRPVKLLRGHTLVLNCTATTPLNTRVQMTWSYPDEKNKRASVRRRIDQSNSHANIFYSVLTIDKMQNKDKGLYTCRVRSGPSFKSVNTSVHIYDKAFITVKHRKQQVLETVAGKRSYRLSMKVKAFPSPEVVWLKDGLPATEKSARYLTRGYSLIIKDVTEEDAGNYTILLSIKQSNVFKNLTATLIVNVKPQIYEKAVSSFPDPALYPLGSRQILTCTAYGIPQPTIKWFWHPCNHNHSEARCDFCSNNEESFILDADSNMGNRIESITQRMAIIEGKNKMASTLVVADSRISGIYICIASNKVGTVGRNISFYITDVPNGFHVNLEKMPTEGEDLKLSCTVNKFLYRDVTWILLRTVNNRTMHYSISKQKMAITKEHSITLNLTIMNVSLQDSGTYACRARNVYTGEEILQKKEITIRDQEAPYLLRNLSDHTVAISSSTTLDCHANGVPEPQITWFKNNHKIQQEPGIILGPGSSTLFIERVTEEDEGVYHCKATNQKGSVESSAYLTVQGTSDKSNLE
Method: as §3

## CGQEISGLC
[1]
  binding to T24 tumor cells: bound

## CLGWRAAAC
[2]
  binding to human bone marrow cells: over twice as high as the positive control

## CWGGLSGLC
[3]
  increase of phage binding after GAG-removal: 3.4 fold
[4]
  increase of phage binding after GAG-removal: 4.2 fold

## DLLHLLAFSKSCSLLP
[5]
  leptin activity in vivo: block leptin activity

B1: phage clone-19 displaying the peptide CPQPRPLC (SEQ ID NO:6) (peptide)
peptide: CPQPRPLC
modifications: not fully specified (bridges); cysteine pairing not given here; also: displayed on pIII of filamentous phage
notes: Tested as whole filamentous phage (10^9 TU per well), not as free peptide; The peptide is expressed in the pIII protein; also called clone 19 phage; not shown: The phage pIII coat protein that carries the insert, and the residues flanking the insert
[6]
  binding result: no binding (tested: 10^9 TU of phage in 50 ul)
[7]
  binding result: no binding (tested: 10^9 TU of phage in 50 ul)
[8]
  binding result: binds
[9]
  binding result: no binding (tested: 10^9 TU of phage in 50 ul)
[10]
  fold enrichment of binding over fd-tet phage: > 1000 fold
